Results published in patent US7662769B2, “Glycosyltransferase GnT-V having neovascularization action” (Suntory Holdings Limited, priority 2002, dated 2010).
“Also recorded” adds a separate entry of the source. Where no end group is shown, it is not given here.

Tests used:
chicken microvessels = assay: CAM (chorioallantoic membrane) assay of neovascularization; assay type: in vivo; details: ex-vivo, chicken embryo CAM
Protocol: Acceleration of neovascularization by a GnT-V transformant was confirmed by a CAM (chorioallantoic membrane) assay using an embryo of a chicken fertilized egg. The CAM assay was conducted by a method of Yen et al. (Yen, L., et al., Oncogene 19, 3460-3469 (2000)) and a method of Bernardini (Bernardini, G., et al., Blood 96, 4039-4045 (2000)), both being slightly modified. CAM 8 days after fertilization of white Leghorn was used, and 1×10^5 cells thereof were inoculated on a collagen sponge and maintained for 4 hours. A 5 mm silicon ring was placed on CAM on the collagen sponge and maintained for 48 hours.
Induction of neovascularization by GnT-V was confirmed also by other in vitro neovascularization assays such as a capillary-like tube formation assay (Ashoton, A. W., et al., J. Biol. Chem. 274, 35562-35570 (1999)) and a migration assay (Zeng, H., et al., J. Biol. Chem. 276, 3271-3279 (2001)) using HUVEC.

HSPG on HUVEC = assay: release of FGF-2 from HSPG on HUVEC (FGF-2 ELISA of supernatant); assay type: cell-based, human; details: 4° C., 2 hours; FIG. 5
From the text: A basic peptide (KRKRKK peptide) composed of Lys-Arg-Lys-Arg-Lys-Lys (SEQ ID NO: 11) which is an amino acid sequence of from 264 to 269 and a non-basic control peptide (FSGGPL peptide) composed of Phe-Ser-Gly-Gly-Pro-Leu (SEQ ID NO: 12) which is an amino acid sequence of from 291 to 296, of GnT-V, were synthesized, and an influence of these peptides on growth of HUVEC was examined. The peptide was synthesized by a peptide synthesizer A432 (manufactured by Applied Biosystems), and purified by reverse phase HPLC, then, its molecular weight and degree of purification were confirmed by MALDI TOF-MS (Voyager-DE (registered trademark) RP; manufactured by PerSeptive Biosystems). The concentration of FGF-2 was measured by a known method (Barillari, G., et al., American J. Patho. 152, 1161-1166 (1998)). […] After centrifugation at 4° C. and 3000 rpm for 5 minutes, the supernatant was collected, the concentration of FGF-2 in the supernatant was measured in an FGF-2 ELISA system (manufactured by R&D Systems) according to a manual of this system.
As described above, various deficient variants of GnT-V and synthetic peptides were added at 4° C. to culture solution of HUVEC, and the amount of FGF-2 released from HSPG on HUVEC was measured.

HUVEC = HUVEC differentiation and growth, incorporation of [3H]-thymidine (DNA synthesis); assay type: cell-based, human; details: [3H]-thymidine incorporation; FIG. 2, 3B, 6
Protocol: For in vitro evaluation of induction of neovascularization by a GnT-V transformant, the amount of synthesis of DNA of human umbilical vein […] cells (HUVEC) after stimulation with culture solution of a GnT-V transformant was measured by a method of Soker et al.(Soker, S., et al., J. Biol. Chem. 272, 31582-31588 (1997)). HUVEC was inoculated on a 96-well plate coated with type I collagen at a rate of 2×10^3 cells per well, and 24 hours later, the medium was substituted with an MCDB131 medium (not containing FBS and FGF-2) containing 0.1% […] and a starved condition was maintained for 24 hours. The medium was substituted with culture solution of the WiDr cell transformed with the glycosyltransferase gene described in Example 1, and HUVEC was stimulated for 24 hours. HUVEC was maintained for 8 hours with [^3H]-thymidine (1 μCi/ml), and incorporation of [^3H]-thymidine into HUVEC was analyzed by MicroBeta-Counter (manufactured by Wallac) to measure the amount of synthesis of DNA. The result was shown as the mean value of assay results of 6 wells, and the standard deviation was measured. All experiments were repeated at least three times, and the same results were obtained. As apparent from FIG. 1, DNA synthesis of HUVEC stimulated with the culture solution of WiDr cells transformed with a GnT-V gene increased, however, the same effect was not observed in culture solution of WiDr cells transformed with other glycosyltransferase genes.
Purification of a neovascularization factor present in culture solution of WiDr cells transformed with a GnT-V gene was conducted using various column chromatographies. The neovascularization activity of each fraction was evaluated by differentiation and growth of HUVEC described in Example 3. In heparin affinity chromatography, a fraction of high growth activity of HUVEC was eluted with 0.3 M NaCl. Since known growth factors such as FGF-1, FGF-2, VEGF, placenta-induced growth factor (PIGF) and hepatocyte growth factor (HGF) and the like are eluted with 0.8 to 1.5 M NaCl (Hauser, S. & Weich H. A., Growth Factor 9, 259-268 (1993). Gohda, E., et al., J. Clin. Invest. 81, 414-419 (1998). Marez, A., et al., Biochimie 69, 125-129 (1987). Risau, W., et al., The EMBO J. 7, 959-962 (1988). Rothenthal, R. A., et al., Growth Factor 4, 53-59 (1990)), the above-mentioned nature is utterly different from the natures of these known growth factors. […] A fraction eluted with 0.3 M NaCl in heparin affinity chromatography was subjected to Western blot analysis using an anti-GnT-V antibody to find that the reaction of the anti-GnT-V antibody and the differentiation and growth activity of HUVEC are consistent each other, and the main protein having a differentiation and growth activity of HUVEC present in the fraction is GnT-V itself.

[1] = glycosyltransferase activity of GnT-V deficient variants; assay type: biochemical; details: recombinant variants from Sf21 cells
From the text: For clarifying which domain of GnT-V is involved in HUVEC growth accelerating activity, a GnT-V lacking variant shown in FIG. 3A was produced. The method of production of a GnT-VΔ188 plasmid is disclosed in a literature of Sasai et al (Sasai, K., et al., Glycobiology (in press)). A transfer plasmid having a GnT-VΔ233 gene was produced by binding a DNA fragment of 1521 base pairs encoding polyhistidine tag at the C-terminal and an amino acid sequence of from Glu234 to Leu741 of human GnT-V, obtained by cutting a GnT-VΔ188 plasmid with EcoRI and EagI, to an EcoRI-EagI site of a transfer vector pAcGP67-A (manufactured by PharMingen). A transfer plasmid having a GnT-VΔ436 gene was produced by binding a DNA fragment of 912 base pairs encoding polyhistidine tag at the C terminal and an amino acid sequence of from Ile437 to Leu741, of human GnT-V, obtained by cutting a GnT-VΔ188 plasmid with EcoRV and EagI, to an EcoRV-EagI site of a transfer vector pAcGP67-A. For production of a recombinant Baculovirus, an insect cell Sf21 was transformed with the transfer plasmid obtained above according to a method known in a literature (Ikeda, Y., et al., J. Biochem. 128, 609-619 (2000)). The recombinant glycosyltransferase derived from the transformed Sf21 cell was purified by Ni^2+-chelating affinity chromatography according to a method disclosed in a literature of Sasaki et al (Sasai, K., et al., Glycobiology (in press)).

## FGF-2: fibroblast growth factor-2 [reference compound]
Chicken microvessels
  induction of neovascularization in CAM assay: induced neovascularization of chicken microvessels

## FSGGPL [FSGGPL peptide, reference compound]
Chicken microvessels
  induction of neovascularization in CAM assay: did not have a neovascularization activity
HSPG on HUVEC
  release of FGF-2 from HSPG on HUVEC: did not affect release of FGF-2

## KRKRKK [KRKRKK peptide]
Chicken microvessels
  induction of neovascularization in CAM assay: induced neovascularization likewise
HSPG on HUVEC
  release of FGF-2 from HSPG on HUVEC: released FGF-2
HUVEC
  differentiation and growth of HUVEC (HUVEC growth accelerating activity): accelerated growth of HUVEC at the same degree as GnT-VΔ73

## heparin [reference compound]
HSPG on HUVEC
  release of FGF-2 from HSPG on HUVEC: induced release of FGF-2

B1: GnT-VΔ73: soluble recombinant GnT-V maintaining a glycosyltransferase activity but lacking in transmembrane portion, prepared by a Baculovirus system (protein, UniProt Q09328 74-741, looked up, fragment)
chain: AGVMTAYDLKKTLAVLLDNILQRIGKLESKVDNLVVNGTGTNSTNSTTAVPSLVALEKINVADIINGAQEKCVLPPMDGYPHCEGKIKWMKDMWRSDPCYADYGVDGSTCSFFIYLSEVENWCPHLPWRAKNPYEEADHNSLAEIRTDFNILYSMMKKHEEFRWMRLRIRRMADAWIQAIKSLAEKQNLEKRKRKKVLVHLGLLTKESGFKIAETAFSGGPLGELVQWSDLITSLYLLGHDIRISASLAELKEIMKKVVGNRSGCPTVGDRIVELIYIDIVGLAQFKKTLGPSWVHYQCMLRVLDSFGTEPEFNHANYAQSKGHKTPWGKWNLNPQQFYTMFPHTPDNSFLGFVVEQHLNSSDIHHINEIKRQNQSLVYGKVDSFWKNKKIYLDIIHTYMEVHATVYGSSTKNIPSYVKNHGILSGRDLQFLLRETKLFVGLGFPYEGPAPLEAIANGCAFLNPKFNPPKSSKNTDFFIGKPTLRELTSQHPYAEVFIGRPHVWTVDLNNQEEVEDAVKAILNQKIEPYMPYEFTCEGMLQRINAFIEKQDFCHGQVMWPPLSALQVKLAEPGQSCKQVCQESQLICEPSFFQHLNKDKDMLKYKVTCQSSELAKDILVPSFDPKNKHCVFQGDLLLFSCAGAHPRHQRVCPCRDFIKGQVALCKDCL
Chicken microvessels
  induction of neovascularization in CAM assay: induced neovascularization of chicken microvessels
HSPG on HUVEC
  release of FGF-2 from HSPG on HUVEC: released FGF-2
HUVEC
  differentiation and growth of HUVEC (HUVEC growth accelerating activity): increased in addition amount-dependent manner; also recorded: had an HUVEC growth and differentiation accentuation action

B2: α1,6-fucosyltransferase (protein, UniProt Q9BYC5 1-575, looked up)
Alpha-(1,6)-fucosyltransferase: MRPWTGSWRWIMLILFAWGTLLFYIGGHLVRDNDHPDHSSRELSKILAKLERLKQQNEDLRRMAESLRIPEGPIDQGPAIGRVRVLEEQLVKAKEQIENYKKQTRNGLGKDHEILRRRIENGAKELWFFLQSELKKLKNLEGNELQRHADEFLLDLGHHERSIMTDLYYLSQTDGAGDWREKEAKDLTELVQRRITYLQNPKDCSKAKKLVCNINKGCGYGCQLHHVVYCFMIAYGTQRTLILESQNWRYATGGWETVFRPVSETCTDRSGISTGHWSGEVKDKNVQVVELPIVDSLHPRPPYLPLAVPEDLADRLVRVHGDPAVWWVSQFVKYLIRPQPWLEKEIEEATKKLGFKHPVIGVHVRRTDKVGTEAAFHPIEEYMVHVEEHFQLLARRMQVDKKRVYLATDDPSLLKEAKTKYPNYEFISDNSISWSAGLHNRYTENSLRGVILDIHFLSQADFLVCTFSSQVCRVAYEIMQTLHPDASANFHSLDDIYYFGGQNAHNQIAIYAHQPRTADEIPMEPGDIIGVAGNHWDGYSKGVNRKLGRTGLYPSYKVREKIETVKYPTYPEAEK
notes: recombinant α1,6-fucosyltransferase used as control glycosyltransferase
HUVEC
  differentiation and growth of HUVEC (HUVEC growth accelerating activity): did not show HUVEC growth accelerating activity at all

B3: GnT-VΔ188: GnT-V lacking variant shown in FIG. 3A, recombinant from Sf21 cells (protein, UniProt Q09328 189-741, looked up, fragment)
chain: LSEVENWCPHLPWRAKNPYEEADHNSLAEIRTDFNILYSMMKKHEEFRWMRLRIRRMADAWIQAIKSLAEKQNLEKRKRKKVLVHLGLLTKESGFKIAETAFSGGPLGELVQWSDLITSLYLLGHDIRISASLAELKEIMKKVVGNRSGCPTVGDRIVELIYIDIVGLAQFKKTLGPSWVHYQCMLRVLDSFGTEPEFNHANYAQSKGHKTPWGKWNLNPQQFYTMFPHTPDNSFLGFVVEQHLNSSDIHHINEIKRQNQSLVYGKVDSFWKNKKIYLDIIHTYMEVHATVYGSSTKNIPSYVKNHGILSGRDLQFLLRETKLFVGLGFPYEGPAPLEAIANGCAFLNPKFNPPKSSKNTDFFIGKPTLRELTSQHPYAEVFIGRPHVWTVDLNNQEEVEDAVKAILNQKIEPYMPYEFTCEGMLQRINAFIEKQDFCHGQVMWPPLSALQVKLAEPGQSCKQVCQESQLICEPSFFQHLNKDKDMLKYKVTCQSSELAKDILVPSFDPKNKHCVFQGDLLLFSCAGAHPRHQRVCPCRDFIKGQVALCKDCL
[1]
  glycosyltransferase activity: had a glycosyltransferase activity
HSPG on HUVEC
  release of FGF-2 from HSPG on HUVEC: released FGF-2
HUVEC
  differentiation and growth of HUVEC (HUVEC growth accelerating activity): had an HUVEC growth and differentiation accentuation action
